Measured values as given in PubChem BioAssay AID256 (DTP/NCI, 2004).
“And” between values parts separate entries of the source, which are not always exact repeats. Equal entries are not always repeated. Toxic doses and inconclusive results are not listed.

System: CD2F1 mice, L1210 leukemia ip, survival T/C
Assay: NCI In Vivo Anticancer Drug Screen. Data for tumor model L1210 Leukemia (intraperitoneal) in CD2F1 (CDF1) mice
Conditions: higher = longer survival
How it was run: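 Compound-dosed mice with transplantable tumor versus matched vehicle controls; endpoint ratio T/C reported.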

[1] = endpoint: mean survival time, dose: 100.0 mg/kg/injection, schedule: Q01DX001 (ip), vehicle: saline with Tween-80
[2] = endpoint: mean survival time, dose: 200.0 mg/kg/injection, schedule: Q01DX001 (ip), vehicle: saline with Tween-80
[3] = endpoint: mean survival time, dose: 400.0 mg/kg/injection, schedule: Q01DX001 (ip), vehicle: saline with Tween-80
[4] = endpoint: mean survival time, dose: 100.0 mg/kg/injection, schedule: Q04DX002 (ip), vehicle: saline
[5] = endpoint: mean survival time, dose: 200.0 mg/kg/injection, schedule: Q04DX002 (ip), vehicle: saline
[6] = endpoint: mean survival time, dose: 100.0 mg/kg/injection, schedule: Q01DX009 (ip), vehicle: saline with Tween-80
[7] = endpoint: mean survival time, dose: 100.0 mg/kg/injection, schedule: Q04DX003 (ip), vehicle: saline with Tween-80
[8] = endpoint: mean survival time, dose: 200.0 mg/kg/injection, schedule: Q01DX009 (ip), vehicle: saline with Tween-80
[9] = endpoint: mean survival time, dose: 200.0 mg/kg/injection, schedule: Q04DX003 (ip), vehicle: saline with Tween-80
[10] = endpoint: mean survival time, dose: 400.0 mg/kg/injection, schedule: Q01DX009 (ip), vehicle: saline with Tween-80
[11] = endpoint: mean survival time, dose: 400.0 mg/kg/injection, schedule: Q04DX003 (ip), vehicle: saline with Tween-80
[12] = endpoint: mean survival time, dose: 50.0 mg/kg/injection, schedule: Q01DX001 (ip), vehicle: saline
[13] = endpoint: mean survival time, dose: 100.0 mg/kg/injection, schedule: Q01DX001 (ip), vehicle: saline
[14] = endpoint: mean survival time, dose: 200.0 mg/kg/injection, schedule: Q01DX001 (ip), vehicle: saline
[15] = endpoint: mean survival time, dose: 400.0 mg/kg/injection, schedule: Q01DX001 (ip), vehicle: saline
[16] = endpoint: mean survival time, dose: 100.0 mg/kg/injection, schedule: Q04DX002 (ip), vehicle: saline with Tween-80
[17] = endpoint: mean survival time, dose: 200.0 mg/kg/injection, schedule: Q04DX002 (ip), vehicle: saline with Tween-80
[18] = endpoint: mean survival time, dose: 400.0 mg/kg/injection, schedule: Q04DX002 (ip), vehicle: saline with Tween-80

## O=S(=O)(Nc1ccc(CCc2ccc(NS(=O)(=O)c3ccccc3)cc2)cc1)c1ccccc1
[1]
  T/C: 95 % of control
[2]
  T/C: 90 % of control
[3]
  T/C: 92 % of control

## Cc1cccc(CN=C(N)CCl)n1
[4]
  T/C: 111 % of control
[5]
  T/C: 116 % of control

## CCS(=O)(=O)/C=C(\I)C(C)(C)C
[6]
  T/C: 97 % of control
[7]
  T/C: 98 % of control
[8]
  T/C: 102 % of control
[9]
  T/C: 102 % of control
[10]
  T/C: 100 % of control
[11]
  T/C: 95 % of control

## COC(=O)c1cc(NC(=O)Nc2cc([N+](=O)[O-])ccc2Cl)cc(C(=O)OC)c1
[12]
  T/C: 92 % of control
[13]
  T/C: 86 % of control and 94 % of control
[6]
  T/C: 89 % of control and 95 % of control
[4]
  T/C: 96 % of control
endpoint: mean survival time, dose: 100.0 mg/kg/injection, schedule: Q04DX003 (ip), vehicle: saline
  T/C: 95 % of control
[14]
  T/C: 89 % of control
[8]
  T/C: 95 % of control and 102 % of control
[5]
  T/C: 93 % of control and 107 % of control
endpoint: mean survival time, dose: 200.0 mg/kg/injection, schedule: Q04DX003 (ip), vehicle: saline
  T/C: 102 % of control
[15]
  T/C: 88 % of control
[10]
  T/C: 102 % of control and 103 % of control
endpoint: mean survival time, dose: 400.0 mg/kg/injection, schedule: Q04DX002 (ip), vehicle: saline
  T/C: 91 % of control and 96 % of control
endpoint: mean survival time, dose: 400.0 mg/kg/injection, schedule: Q04DX003 (ip), vehicle: saline
  T/C: 96 % of control

## Nc1nc(N)c(N=Nc2ccccc2S(=O)(=O)O)c(N)n1
[6]
  T/C: 94 % of control
[7]
  T/C: 95 % of control
[8]
  T/C: 108 % of control
[9]
  T/C: 100 % of control
[10]
  T/C: 100 % of control
[11]
  T/C: 93 % of control

## COc1cc(NC(=O)Nc2ccc(S(N)(=O)=O)cc2)c(Cl)c(OC)c1
[6]
  T/C: 95 % of control
[8]
  T/C: 95 % of control
[10]
  T/C: 104 % of control

## c1cnc2c(OB(C3CCCCC3)C3CCCCC3)cccc2c1
[1]
  T/C: 105 % of control
[2]
  T/C: 91 % of control
[3]
  T/C: 91 % of control

## O=C(O)c1c(Sc2ccccc2)cccc1Sc1ccccc1
endpoint: mean survival time, dose: 25.0 mg/kg/injection, schedule: Q04DX002 (ip), vehicle: saline with Tween-80
  T/C: 93 % of control
endpoint: mean survival time, dose: 50.0 mg/kg/injection, schedule: Q04DX002 (ip), vehicle: saline with Tween-80
  T/C: 93 % of control
[1]
  T/C: 89 % of control
[16]
  T/C: 93 % of control
[2]
  T/C: 93 % of control
[17]
  T/C: 95 % of control
[3]
  T/C: 90 % of control
[18]
  T/C: 87 % of control

## CC[N+](CC)(CC)Cc1ccccc1
endpoint: mean survival time, dose: 10.0 mg/kg/injection, schedule: Q04DX003 (ip), vehicle: saline with Tween-80
  T/C: 105 % of control
endpoint: mean survival time, dose: 20.0 mg/kg/injection, schedule: Q04DX003 (ip), vehicle: saline with Tween-80
  T/C: 94 % of control
endpoint: mean survival time, dose: 40.0 mg/kg/injection, schedule: Q04DX003 (ip), vehicle: saline with Tween-80
  T/C: 98 % of control

## Cc1ccc(CNc2ccc(I)cc2)cc1
[7]
  T/C: 93 % of control
[9]
  T/C: 88 % of control
[11]
  T/C: 86 % of control

## CC1C(=O)OC2C1CCC1(C)C(O)OC(=O)C3(O)OC231 (stereo unspecified)
[16]
  T/C: 104 % of control
[17]
  T/C: 96 % of control
[18]
  T/C: 96 % of control

## CC(=O)NNC(=O)c1ccccc1CO
endpoint: mean survival time, dose: 12.5 mg/kg/injection, schedule: Q01DX009 (ip), vehicle: other
  T/C: 89 % of control
endpoint: mean survival time, dose: 25.0 mg/kg/injection, schedule: Q01DX009 (ip), vehicle: other
  T/C: 90 % of control
endpoint: mean survival time, dose: 50.0 mg/kg/injection, schedule: Q01DX009 (ip), vehicle: other
  T/C: 97 % of control
endpoint: mean survival time, dose: 100.0 mg/kg/injection, schedule: Q01DX009 (ip), vehicle: other
  T/C: 94 % of control
endpoint: mean survival time, dose: 200.0 mg/kg/injection, schedule: Q01DX009 (ip), vehicle: other
  T/C: 101 % of control

## Cc1c2ccncc2c(C)c2c1[nH]c1ccc(O)cc12
endpoint: mean survival time, dose: 16.75 mg/kg/injection, schedule: Q04DX003 (ip), vehicle: water
  T/C: 116 % of control
endpoint: mean survival time, dose: 50.0 mg/kg/injection, schedule: Q04DX003 (ip), vehicle: other
  T/C: 166 % of control
endpoint: mean survival time, dose: 75.0 mg/kg/injection, schedule: Q04DX003 (ip), vehicle: water
  T/C: 111 % of control
endpoint: mean survival time, dose: 100.0 mg/kg/injection, schedule: Q04DX003 (ip), vehicle: other
  T/C: 102 % of control
endpoint: mean survival time, dose: 100.0 mg/kg/injection, schedule: Q04DX003 (ip), vehicle: water
  T/C: 94 % of control

## COc1cc2c3cc1Oc1c(OC)c(OC)cc4c1[C@@H](Cc1ccc(O)c(c1)Oc1ccc(cc1)C[C@@H]3N(C)CC2)N(C)CC4
endpoint: mean survival time, dose: 75.0 mg/kg/injection, schedule: Q01DX001 (ip), vehicle: other
  T/C: 96 % of control
endpoint: mean survival time, dose: 150.0 mg/kg/injection, schedule: Q01DX001 (ip), vehicle: other
  T/C: 100 % of control

## Cc1ccc(SC(=O)Cc2ccc([N+](=O)[O-])cc2)cc1
[1]
  T/C: 92 % of control
[2]
  T/C: 88 % of control
[3]
  T/C: 93 % of control

## O=[N+]([O-])C1=C(c2ccccc2)SC=C(c2ccccc2)S1
[1]
  T/C: 87 % of control
[2]
  T/C: 97 % of control
[3]
  T/C: 105 % of control

## O=C1OCc2ccc3ccccc3c21
[12]
  T/C: 97 % of control
[13]
  T/C: 89 % of control
[14]
  T/C: 93 % of control
[15]
  T/C: 93 % of control

## Oc1ccc(CCCl)cc1
endpoint: mean survival time, dose: 50.0 mg/kg/injection, schedule: Q01DX009 (ip), vehicle: saline with Tween-80
  T/C: 91 % of control
[6]
  T/C: 102 % of control
[8]
  T/C: 102 % of control

## Cc1cc(S(=O)(=O)F)cc(Cl)c1S
[16]
  T/C: 102 % of control

## COc1cccc(Sc2ccc([N+](=O)[O-])c3no[n+]([O-])c23)c1
endpoint: median survival time, dose: 1.85 mg/kg/injection, schedule: Q01DX005 (ip), vehicle: saline with Tween-80
  T/C: 102 % of control
endpoint: median survival time, dose: 1.87 mg/kg/injection, schedule: Q01DX005 (ip), vehicle: saline with Tween-80
  T/C: 106 % of control
endpoint: median survival time, dose: 3.75 mg/kg/injection, schedule: Q01DX005 (ip), vehicle: saline with Tween-80
  T/C: 108 % of control and 109 % of control
endpoint: median survival time, dose: 7.5 mg/kg/injection, schedule: Q01DX005 (ip), vehicle: saline with Tween-80
  T/C: 107 % of control and 111 % of control
endpoint: median survival time, dose: 15.0 mg/kg/injection, schedule: Q01DX005 (ip), vehicle: saline with Tween-80
  T/C: 108 % of control
endpoint: median survival time, dose: 15.0 mg/kg/injection, schedule: Q01DX009 (ip), vehicle: saline with Tween-80
  T/C: 102 % of control and 104 % of control
endpoint: median survival time, dose: 30.0 mg/kg/injection, schedule: Q01DX005 (ip), vehicle: saline with Tween-80
  T/C: 102 % of control and 109 % of control
endpoint: median survival time, dose: 30.0 mg/kg/injection, schedule: Q01DX009 (ip), vehicle: saline with Tween-80
  T/C: 101 % of control and 103 % of control
endpoint: median survival time, dose: 60.0 mg/kg/injection, schedule: Q01DX009 (ip), vehicle: saline with Tween-80
  T/C: 96 % of control and 108 % of control
endpoint: median survival time, dose: 120.0 mg/kg/injection, schedule: Q01DX009 (ip), vehicle: saline with Tween-80
  T/C: 100 % of control

## CCOc1c(C#N)c2c(N)ncnc2n1C1OC(CO)C(O)C1O (stereo unspecified)
endpoint: mean survival time, dose: 12.5 mg/kg/injection, schedule: Q01DX009 (ip), vehicle: distilled water + Tween-80
  T/C: 103 % of control
endpoint: mean survival time, dose: 25.0 mg/kg/injection, schedule: Q01DX009 (ip), vehicle: distilled water + Tween-80
  T/C: 112 % of control
endpoint: mean survival time, dose: 50.0 mg/kg/injection, schedule: Q01DX009 (ip), vehicle: distilled water + Tween-80
  T/C: 112 % of control
endpoint: mean survival time, dose: 100.0 mg/kg/injection, schedule: Q01DX009 (ip), vehicle: distilled water + Tween-80
  T/C: 117 % of control

## C/C(=N\Nc1ccc([N+](=O)[O-])cc1[N+](=O)[O-])c1ccc[nH]1
[6]
  T/C: 87 % of control
[7]
  T/C: 95 % of control
[8]
  T/C: 97 % of control
[9]
  T/C: 95 % of control
[10]
  T/C: 93 % of control
[11]
  T/C: 91 % of control

## c1ccc([Si]2(c3ccccc3)c3ccccc3-c3ccccc32)cc1
[6]
  T/C: 94 % of control
[8]
  T/C: 99 % of control

## O=c1[nH]cc(NCCCc2ccccc2)c(=O)[nH]1
[7]
  T/C: 102 % of control
[9]
  T/C: 104 % of control
[11]
  T/C: 96 % of control

## CCCCCCCCCCCCCC[n+]1ccc(C#N)cc1
endpoint: mean survival time, dose: 7.5 mg/kg/injection, schedule: Q01DX001 (ip), vehicle: saline
  T/C: 97 % of control
endpoint: mean survival time, dose: 7.5 mg/kg/injection, schedule: Q01DX009 (ip), vehicle: saline
  T/C: 100 % of control
endpoint: mean survival time, dose: 15.0 mg/kg/injection, schedule: Q01DX001 (ip), vehicle: saline
  T/C: 92 % of control
endpoint: mean survival time, dose: 15.0 mg/kg/injection, schedule: Q01DX009 (ip), vehicle: saline
  T/C: 103 % of control
endpoint: mean survival time, dose: 30.0 mg/kg/injection, schedule: Q01DX001 (ip), vehicle: saline
  T/C: 100 % of control
endpoint: mean survival time, dose: 30.0 mg/kg/injection, schedule: Q01DX009 (ip), vehicle: saline
  T/C: 107 % of control

## Cc1ccc(S(=O)(=O)/C=C(\I)c2ccccc2)cc1
[6]
  T/C: 91 % of control
[7]
  T/C: 96 % of control
[8]
  T/C: 94 % of control
[9]
  T/C: 96 % of control
[10]
  T/C: 94 % of control
[11]
  T/C: 93 % of control
